How the values were obtained:
[1] = test system: self-administration of ethanol; experiment: Operant self-administration of ethanol (lever presses for 10% ethanol cocktail); type: in vivo, Male Wistar rats; settings: for Percent Change from Non-Drug Baseline: Repeated Dosing: Day 1 / Percent Change from Non-Drug Baseline: Repeated Dosing: Day 5 / Percent Change from Non-Drug Baseline: Single Dosing: lever presses for ethanol, naltrexone ED75 SC; for Percent Change from Non-Drug Baseline: Repeated Dosing: Day 1 / Percent Change from Non-Drug Baseline: Repeated Dosing: Day 5: once a day for 5 days; for effect on number of lever presses for ethanol over the dose range: naltrexone 0-6 mg/kg SC, 30 min before session; for Lever Presses (Mean ± SEM): 30 min session; for decrease in number of lever presses for ethanol compared to non-drug treated (baseline): naltrexone ED75 0.05-0.075 mg/kg SC alone
Description: Male Wistar rats (initial weight of 200±30 grams; Charles River Laboratories, MA) were individually housed with free access to food and water. The vivarium was maintained on a 12 hour light/dark cycle with a room temperature of 22±3° C.
Animals were trained daily in an operant chamber to press a lever to receive access to an ethanol cocktail as a reinforcer using a saccharin fading procedure. […] The final ethanol cocktail contained 10% ethanol in 0.04% saccharine. Each session lasted 30 minutes, during which the rat could press the lever twice to gain access to 0.1 mL of the ethanol cocktail. The operant chamber (Coulboume Instruments, Allentown, Pa.) is a computer-controlled automated system which recorded the number of lever presses completed by a rat. At the end of the training period (6-8 weeks), rats which consistently drank a minimum intake of 0.6 g/kg/hour of EtOH (approximately 60 bar presses) were selected to participate in the drug studies. These trained rats were used repeatedly throughout these studies to control for intra-subject variability. Assessments of drug effects were made following a single dosing, with a minimum of a 2 day drug washout period between arms of studies.
The ability of naltrexone to reduce ethanol drinking (i.e., decrease the number of lever presses) was assessed in this animal model of self administration of ethanol. […] The total number of lever presses was recorded over the 30 minute test session. […] In addition, oral activity was also assessed. […] The animals were tested in the operant chambers one hour later and the number of lever presses for ethanol was recorded for the 30 minute session.
This dose allows one to determine if the co-administered drugs impaired or enhanced naltrexone's effect on ethanol drinking. The drugs were administered orally 30 minutes prior to a naltrexone injection (SC), and 60 minutes prior to the beginning of the ethanol drinking test session. The number of lever presses for the ethanol cocktail was recorded at the end of the 30 minute session.
(§1) Repeated Dosing. The previous studies were conducted using a single dosing procedure. To determine if this drug interaction might be further enhanced with repeated daily dosing or conversely, the effect on decreasing alcohol self-administration is lost (due to tolerance) following multiple daily dosing, the study was repeated with a once-a-day for 5 days dosing procedure. […] Animals were tested on Day 1 and on Day 5.
as §1, with “study was” for “studies were”, “repeated” for “repeated daily”

[2] = Pharmacokinetic profile of opioid antagonists after IV, PO and SC administration; settings: rat; for AUC(0-inf) / bioavailability: male, Sprague Dawley, in vivo
Description: Blood samples were collected for 6 hours post-dose. Concentrations of each parent drug were determined by LC/MS-MS. Pharmacokinetic parameters were determined by noncompartmental analysis.

[3] = test system: morphine-induced analgesia; experiment: Hotplate test: inhibition of morphine-induced analgesia; type: in vivo, Male Wistar rats; settings: 5 consecutive days SC dosing; first vs last day response latencies

Cc1c(C(=O)NN2CCCCC2)nn(-c2ccc(Cl)cc2Cl)c1-c1ccc(I)cc1 [AM-251]
lever pressing for ethanol compared to non-drug treated conditions ([1]; AM-251 3.0 mg/kg alone): no effect
Percent Change from Non-Drug Baseline: Repeated Dosing: Day 1 ([1]; AM-251 1 mg/kg PO): −2%
Percent Change from Non-Drug Baseline: Repeated Dosing: Day 5 ([1]; AM-251 1 mg/kg PO): +19%

NC[C@H](CC(=O)O)c1ccc(Cl)cc1 [Baclofen, R(+)-Baclofen]
lever pressing for ethanol compared to non-drug treated conditions ([1]; baclofen 3.0 mg/kg alone, p<0.01): significantly decreased the self-administration of ethanol
Percent Change from Non-Drug Baseline: Repeated Dosing: Day 1 ([1]; baclofen 0.3 mg/kg PO): −35%
Percent Change from Non-Drug Baseline: Repeated Dosing: Day 5 ([1]; baclofen 0.3 mg/kg PO): −30%

O=C1CC[C@@]2(O)[C@H]3Cc4ccc(O)c5c4[C@@]2(CCN3CC2CC2)[C@H]1O5 [Naltrexone]
AUC(0-inf) ([2]; po, 10 mg/kg): 150 ng·h/mL
bioavailability ([2]; po, 10 mg/kg): 3%
AUC(0-inf) ([2]; sc, 0.1 mg/kg): 14.4 ng·h/mL
bioavailability ([2]; sc, 0.1 mg/kg): 31%
absorption ([2]; PO or SC): rapidly absorbed
development of tolerance in blocking morphine-induced analgesia [3]: no development of tolerance
effect on decreasing self-administration of ethanol ([1]; 0.5 mg/kg SC, 30 minutes prior to testing): equivalent effects
effect on decreasing self-administration of ethanol (oral activity) ([1]; 10 mg/kg oral gavage, tested one hour later): only RDC-0313-01 was active
ED75 (dose of naltrexone that produced a 25% decrease in lever responses for ethanol) ([1]; SC, titrated for each individual animal): 0.05 to 0.075 mg/kg
Percent Change from Non-Drug Baseline: Repeated Dosing: Day 1 ([1]; AM-251 1 mg/kg PO): −24%
Percent Change from Non-Drug Baseline: Repeated Dosing: Day 5 ([1]; AM-251 1 mg/kg PO): −19%
Percent Change from Non-Drug Baseline: Single Dosing ([1]; AM-251 PO): −33%
Percent Change from Non-Drug Baseline: Repeated Dosing: Day 1 ([1]; baclofen 0.3 mg/kg PO): −43%
Percent Change from Non-Drug Baseline: Repeated Dosing: Day 5 ([1]; baclofen 0.3 mg/kg PO): −57%
Percent Change from Non-Drug Baseline: Single Dosing ([1]; baclofen PO): −18%
decrease in lever presses versus baseline and vehicle control ([1]; lowest dose of naltrexone tested, 0.05 mg/kg): no significant decrease
effect on number of lever presses for ethanol over the dose range [1]: Suppresses the Self-Administration of Ethanol in a Dose-Dependent Manner
effect on number of lever presses for ethanol over the dose range ([1]; listed as naltrexone): dose-dependent decrease in the number of lever presses
Approximate Absolute Ethanol Consumed ([1]; naltrexone 0.05 mg/kg SC): 1.0 g/kg
Lever Presses (Mean ± SEM) ([1]; naltrexone 0.05 mg/kg SC): 132 ± 13.3
Approximate Absolute Ethanol Consumed ([1]; naltrexone 0.1 mg/kg SC): 0.7 g/kg
Lever Presses (Mean ± SEM) ([1]; naltrexone 0.1 mg/kg SC): 88 ± 8.6
Approximate Absolute Ethanol Consumed ([1]; naltrexone 0.5 mg/kg SC): 0.6 g/kg
Lever Presses (Mean ± SEM) ([1]; naltrexone 0.5 mg/kg SC): 83 ± 12.1
Approximate Absolute Ethanol Consumed ([1]; naltrexone 1.0 mg/kg SC): 0.3 g/kg
Lever Presses (Mean ± SEM) ([1]; naltrexone 1.0 mg/kg SC): 43 ± 8.6
Approximate Absolute Ethanol Consumed ([1]; naltrexone 3.0 mg/kg SC): 0.2 g/kg
Lever Presses (Mean ± SEM) ([1]; naltrexone 3.0 mg/kg SC): 24 ± 8.1
Approximate Absolute Ethanol Consumed ([1]; naltrexone 6.0 mg/kg SC): 0.2 g/kg
Lever Presses (Mean ± SEM) ([1]; naltrexone 6.0 mg/kg SC): 21 ± 5.5
effect on decreasing ethanol drinking at the higher doses ([1]; naltrexone 3 and 6 mg/kg): appeared to plateau
decrease in number of lever presses for ethanol compared to non-drug treated (baseline) ([1]; AM-251 acute dosing study): 32.5%
decrease in number of lever presses for ethanol compared to non-drug treated (baseline) ([1]; baclofen single dosing study): 18%

From patent US20070099947A1, “Methods and compositions for the treatment of brain reward system disorders by combination therapy” (Alkermes, Inc., priority 2005, published 2007)
